{"source": "patent US11655456B2", "about": "“Engineered intestinal tissue and uses thereof” (Organovo, Inc., priority 2016, dated 2023)", "key": {"[1]": {"test_system": "3D bioprinted intestinal tissue"}, "[2]": {"test_system": "prostaglandin E2 synthesis", "test": "Prostaglandin E2 synthesis in 3D bioprinted intestinal tissue", "assay_type": "cell-based, human", "conditions": "all indomethacin doses tested"}, "[3]": {"test_system": "3D bioprinted intestinal tissue", "conditions": "higher / increasing doses of indomethacin"}, "[4]": {"test_system": "3D bioprinted intestinal tissue", "test": "LDH activity / release from 3D bioprinted intestinal tissue after toxicant treatment"}, "[5]": {"test_system": "3D bioprinted intestinal tissue", "test": "Barrier function (TEER) of 3D bioprinted intestinal tissue after toxicant treatment", "conditions": "24 hour incubation, varying doses"}, "BCRP": {"biological_target": "T1, BCRP (Homo sapiens, UniProt Q9UNQ0)", "T1 sequence (Q9UNQ0 1-655)": "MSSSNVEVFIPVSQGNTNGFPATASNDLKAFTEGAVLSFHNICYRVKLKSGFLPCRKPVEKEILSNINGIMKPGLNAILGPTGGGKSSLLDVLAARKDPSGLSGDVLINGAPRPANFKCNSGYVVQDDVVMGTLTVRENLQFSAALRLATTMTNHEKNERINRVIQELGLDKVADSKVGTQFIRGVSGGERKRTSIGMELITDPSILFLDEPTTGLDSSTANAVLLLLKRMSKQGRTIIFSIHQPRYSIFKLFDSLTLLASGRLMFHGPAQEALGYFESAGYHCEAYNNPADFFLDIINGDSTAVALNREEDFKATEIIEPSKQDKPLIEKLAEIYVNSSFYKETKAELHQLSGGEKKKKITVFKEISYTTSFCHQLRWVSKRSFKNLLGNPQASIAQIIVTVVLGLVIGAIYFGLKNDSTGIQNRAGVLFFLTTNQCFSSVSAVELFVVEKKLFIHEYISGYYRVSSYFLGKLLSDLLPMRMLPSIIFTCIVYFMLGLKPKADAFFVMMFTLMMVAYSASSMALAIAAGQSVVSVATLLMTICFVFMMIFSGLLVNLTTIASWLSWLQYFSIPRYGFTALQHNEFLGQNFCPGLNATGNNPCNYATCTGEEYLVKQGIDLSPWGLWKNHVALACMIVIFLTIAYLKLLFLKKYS", "method": "FIGS. 25A-25D show P-gp and BCRP transporter function in 3D bioprinted intestinal tissue.\nP-gp and BCRP function were tested in the 3D bioprinted intestinal tissue model by measuring bi-directional transport with and without inhibition (FIG. 25C)."}, "[6]": {"test_system": "3D printed tissues and 2D epithelial monolayers of Caco-2/STC-1 cells", "test": "Lucifer Yellow permeability (barrier integrity) of 3D printed Caco-2 tissues and 2D monolayers", "assay_type": "in vitro ADME, human", "conditions": "bioprinted 3D constructs and 2D monolayers (Caco-2/STC-1), later stages of culture", "method": "FIG. 5 is a bar graph showing permeability comparison of 2D monolayers and 3D bioprinted Caco-2 tissues measured by Lucifer Yellow. […] Permeability was measured on 3D printed tissues and compared to 2D epithelial monolayers of Caco-2/STC-1 cells and interstitium alone.\nExperiment time course studies were run 4, 7, and 14 days post addition of epithelial cells. Tissues were measured for GLP-1 secretion into supernatant. Tissues were also measured for barrier function at multiple time points by TEER or Lucifer yellow (non-lytic assays). After incubation, the tissues were fixed in paraformaldehyde (PFA) for histology or lysed for RNA extraction."}, "COX2, IL8, and TNFα": {"test_system": "COX2, IL8, and TNFα", "test": "Inflammation gene expression after TNFα treatment of 3D bioprinted intestinal tissue", "assay_type": "cell-based, human", "conditions": "TNFα high dose, 24 hours", "experimental": "To characterize the 3D bioprinted intestinal model response to inflammation, commonly associated with GI toxicity as well as chronic disease conditions, tissues were treated with a high dose of pro-inflammatory cytokine TNFα for 24 hours and evaluated for changes in morphology, LDH release, and gene expression (FIG. 28)."}, "[7]": {"test_system": "3D bioprinted intestinal tissue", "remark": "listed apart in the source"}}, "note": "Entries after “also recorded” stand apart in the source; their conditions may differ.", "data": [{"compound": "C[C@H]1O[C@@H](O[C@H]2[C@@H](O)C[C@H](O[C@H]3[C@@H](O)C[C@H](O[C@H]4CC[C@@]5(C)[C@H](CC[C@@H]6[C@@H]5C[C@@H](O)[C@]5(C)[C@@H](C7=CC(=O)OC7)CC[C@]65O)C4)O[C@@H]3C)O[C@@H]2C)C[C@H](O)[C@@H]1O", "note": "[digoxin]", "values": [{"measurement": "permeability in the apical to basal direction", "setting": "[1]", "value": "moderate"}]}, {"compound": "COc1ccc2c(c1)c(CC(=O)O)c(C)n2C(=O)c1ccc(Cl)cc1", "note": "[indomethacin]", "values": [{"measurement": "prostaglandin E2 synthesis", "setting": "[2]", "value": "decreased to similar levels for all indomethacin doses tested; also recorded: inhibition of prostaglandin E2 synthesis"}, {"measurement": "E-Cadherin expression (marker of barrier function)", "setting": "[3]", "value": "reduction in E-Cadherin; also recorded: decreased expression of E-Cadherin"}, {"measurement": "histology of the epithelium", "setting": "[3]", "value": "disruption of the epithelium and distorted nuclear staining; also recorded: increased disruption of the epithelial layer"}, {"measurement": "LDH activity", "setting": "[4]; 24 hour treatment, increasing indomethacin dose", "value": "increased"}, {"measurement": "LDH release", "setting": "[4]; indomethacin doses above 0.25 mM", "value": "significantly increased"}, {"measurement": "barrier function measured by TEER", "setting": "[5]", "value": "dose response decrease in TEER; also recorded: dose-dependent decrease in barrier function; also recorded: decreased TEER"}]}, {"compound": "O=C1c2c(O)ccc(O)c2C(=O)c2c(NCCNCCO)ccc(NCCNCCO)c21", "note": "[mitoxantrone]", "values": [{"measurement": "permeability in the B to A direction compared with A to B", "setting": "BCRP", "value": "much higher permeability"}]}, {"compound": "CC[C@@]1(O)C(=O)OCc2c1cc1n(c2=O)Cc2cc3c(CN(C)C)c(O)ccc3nc2-1", "note": "[topotecan]", "values": [{"measurement": "efflux ratio", "setting": "BCRP; control conditions", "value": 8.8}]}, {"compound": "Lucifer yellow", "values": [{"measurement": "Lucifer Yellow permeability", "setting": "[6]", "value": "< 3", "unit": "%"}]}, {"compound": "TNFα", "values": [{"measurement": "gene expression of COX2, IL8 and TNFα", "setting": "COX2, IL8, and TNFα", "value": "upregulated"}, {"measurement": "barrier function", "setting": "[7]", "value": "decreased barrier function"}]}]}
